Reference: patent US5130253A, “DNAs Encoding mosquito oostatic hormones” (University of Florida, priority 1991, dated 1992)
Where no end group is shown, it is not given here.

Assays:
[1] = system: Aedes aegypti; assay: Inhibition of egg (ovarian) development after injection into blood-fed females; format: in vivo; conditions: for Inhibition of egg development / Yolk length: 24 hours; for Effect compared with natural, purified oostatic hormone: injection
Method: (§1) Female insects were injected with 0.5 μl to 1.0 μl hormone solution
(§2) of analog 1 or saline and analyzed 24 hours later for egg development.
(§3) The insects were evaluated for the effect of oostatic hormone 24 hours after injecting the hormone by dissecting out the ovaries and measuring the yolk in each follicle, or by dissecting out the midgut and determining trypsin biosynthesis as was described by Borovsky, D. (1988), Arch. Insect Biochem. Physiol. 8:249-260. We believe that we have discovered an effective method that can interfere with the biosynthesis of serine esterases (trypsinlike or chymotrypsinlike enzymes) in the midgut of insects.
(§4) (a) Female Aedes aegypti were fed blood on a chicken, lightly anesthetized with ether, and immediately injected with different concentrations (1 to 5 μg; 0.25 to 0.5 μl) of synthetic analogs of oostatic hormone (1 and 2). […] Twenty-four hours after the injection of oostatic hormone analogs, or water as a control, egg development and trypsinlike enzyme biosynthesis was determined (Borovsky, D. (1988), Arch, Ins. Biochem. Physiol. 7:187-210). (See Table 2)
Groups of female Aedes aegypti were injected with 0.5 to 0.25 μl of
oostatic hormone analogs, or with 0.5 μl of water as control.

[2] = system: Aedes aegypti; assay: Toxicity (mortality) of injected mosquitoes; format: in vivo; conditions: 1 to 5 μg injected in 0.25 to 0.5 μl
Method: as §4

[3] = system: houseflies; assay: Topical application in DMSO; format: in vivo; conditions: 10 to 20 μg topically in 1 to 10 μl of DMSO; 24 hours after treatment
Method: (§5) (b) Another procedure was to dissolve oostatic hormone analogs (1) or (2) in a solvent that might facilitate transport through the cuticular barrier into hemolymph. Dimethylsulfoxide was used and 10 to 20 μg of (1) or (2) was applied topically to houseflies and stableflies in 1 to 10 μl of DMSO.

[4] = system: stableflies; assay: Topical application in DMSO; format: in vivo; conditions: 10 to 20 μg topically in 1 to 10 μl of DMSO; 24 hours after treatment
Method: as §5

[5] = system: trypsinlike enzymes biosynthesis; assay: Inhibition of trypsinlike enzyme biosynthesis in the midgut after injection; format: in vivo, Aedes aegypti; conditions: 2.86 nmol injected; 24 hours later
Method: as §1, §2, §3, §4

[6] = system: Anopheles albimanus; assay: Inhibition of ovarian development after injection; format: in vivo; conditions: 1.83 nmol injected; 24 hours later
Method: as §1, §2, §3

[7] = system: Culex quinquefasciatus; assay: Inhibition of ovarian development after injection; format: in vivo; conditions: 3.6 nmol injected; 24 hours later
Method: as §1, §2, §3

[8] = system: Lutzomyia anthophora; assay: Inhibition of ovarian development after injection; format: in vivo; conditions: 0.477 nmol injected; 24 hours later
Method: as §1, §2, §3

[9] = system: trypsinlike enzymes biosynthesis; assay: Inhibition of trypsin synthesis after injection; format: in vivo, Lutzomyia anthophora; conditions: 0.477 nmol injected; 24 hours later
Method: as §1, §2, §3

[10] = system: trypsinlike enzymes biosynthesis; assay: Inhibition of trypsin synthesis after injection; format: in vivo, Stomoxys calcitrans; conditions: 4.77 nmol injected; 24 hours later
Method: as §1, §2, §3

[11] = system: trypsinlike enzymes biosynthesis; assay: Inhibition of trypsin synthesis after injection; format: in vivo, Musca domestica; conditions: 4.77 nmol injected; 24 hours later
Method: as §1, §2, §3

[12] = system: trypsinlike enzymes biosynthesis; assay: Inhibition of trypsin synthesis after injection; format: in vivo, Ctenocephalides felis (bouche); conditions: 0.477 nmol injected; 24 hours later
Method: as §1, §2, §3

[13] = format: in vitro ADME, mosquito
From the text: The structure of these peptides render them undigestible with known endopeptidases (i.e. proteolytic enzymes like trypsin, pronase, etc.). The peptides were not affected by 1% trifluoroacetic acid and were routinely purified using this acid on HPLC. DNA sequences encoding the peptides of the invention can be used as probes to locate the genes expressing these peptides.

In the case of DYPAPPPPPP [analog 2, H2 NDYPAP6 COOH], the “Inhibition of egg development” value ([1]; 0.96 μg (0.92 nmol) injected) is reported as 62%, the Yolk length ([1]; 0.96 μg (0.92 nmol) injected) is reported as 102 ± 11 μm and the “Inhibition of egg development” value ([1]; 1.92 μg (1.83 nmol) injected) is reported as 96%. The Yolk length ([1]; 1.92 μg (1.83 nmol) injected) was 55 ± 11 μm, the “Effect compared with natural, purified oostatic hormone” value [1] was “same effect as injection of natural, purified oostatic hormone” and the “Toxicity: death of injected mosquitoes” value [2] was “none of the injected mosquitoes died”. For the same sequence, the “Activity (sterilization through inhibition of trypsin-like enzyme synthesis)” value [3] was “Some evidence of activity” and the “Activity (sterilization through inhibition of trypsin-like enzyme synthesis)” value [4] was “Some evidence of activity”.

With YDPAPPPPPP [analog 1, H2 NYDPAP6 COOH] the “Inhibition of ovarian development” value ([1]; 2.86 nmol injected, analyzed 24 hours later) was 98%, the “Inhibition of egg development” value ([1]; 1.20 μg (1.15 nmol) injected) was 76% and the Yolk length ([1]; 1.20 μg (1.15 nmol) injected) was 82 ± 3 μm. For the same sequence, the “Inhibition of egg development” value ([1]; 2.44 μg (2.33 nmol) injected) was 98%, the Yolk length ([1]; 2.44 μg (2.33 nmol) injected) was 53 ± 3 μm and the “Effect compared with natural, purified oostatic hormone” value [1] was “same effect as injection of natural, purified oostatic hormone”. The “Inhibition of trypsin synthesis” value [5] was 86%, the “Inhibition of ovarian development” value [6] was 100% and the “Inhibition of ovarian development” value [7] was 91%. For the same sequence, the “Inhibition of ovarian development” value [8] was 50%, the “Inhibition of trypsin synthesis” value [9] was 30% and the “Inhibition of trypsin synthesis” value [10] was 50%. For the same sequence, the “Inhibition of trypsin synthesis” value [11] was 85%, the “Inhibition of trypsin synthesis” value [12] was 50% and the “Toxicity: death of injected mosquitoes” value [2] was “none of the injected mosquitoes died”. The “Activity (sterilization through inhibition of trypsin-like enzyme synthesis)” value [3] was “Some evidence of activity”, the “Activity (sterilization through inhibition of trypsin-like enzyme synthesis)” value [4] was “Some evidence of activity” and the “Loss of activity on standing in mosquito homogenate” value [13] was “without loss of activity”.
